We go through 1 compound from paper PMC12473159, “A Comprehensive Functional Analysis of OsPEAMT1 and OsPEAMT2 Genes in Rice (Oryza sativa L. ssp. japonica)” (Plants, 2025).

One test addresses T1, OsPEAMT2 (Oryza sativa, UniProt A0A0P0WPX7).
T1 construct: gene Os05g0548900; forward primer encodes MDAVAAN
T1 sequence (A0A0P0WPX7 1-495): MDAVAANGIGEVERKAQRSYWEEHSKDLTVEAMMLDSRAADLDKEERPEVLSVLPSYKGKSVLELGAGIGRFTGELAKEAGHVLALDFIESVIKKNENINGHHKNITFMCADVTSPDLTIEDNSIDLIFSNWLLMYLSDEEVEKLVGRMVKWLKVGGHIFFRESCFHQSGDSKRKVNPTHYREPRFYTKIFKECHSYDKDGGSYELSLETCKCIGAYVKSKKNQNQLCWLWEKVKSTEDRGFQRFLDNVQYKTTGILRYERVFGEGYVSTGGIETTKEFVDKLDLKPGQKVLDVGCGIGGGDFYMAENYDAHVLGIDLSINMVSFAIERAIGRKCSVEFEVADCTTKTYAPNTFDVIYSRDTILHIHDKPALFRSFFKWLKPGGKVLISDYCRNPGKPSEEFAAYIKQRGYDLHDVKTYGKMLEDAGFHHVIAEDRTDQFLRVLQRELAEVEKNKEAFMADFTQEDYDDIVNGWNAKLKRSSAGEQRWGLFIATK
Nature of the test: LC-MS/MS of phosphocholine formed. The format is biochemical. The conditions noted are these: 200 uM P-EA, 200 uM S-adenosyl-L-methionine, HEPES-KOH pH 9.9, 2 mM EDTA, 30 C, 30 min.

The next test concerns the target T2, OsPEAMT1 (Oryza sativa, UniProt Q6QA26).
T2 construct: gene PEAMT
T2 sequence (Q6QA26 20-499): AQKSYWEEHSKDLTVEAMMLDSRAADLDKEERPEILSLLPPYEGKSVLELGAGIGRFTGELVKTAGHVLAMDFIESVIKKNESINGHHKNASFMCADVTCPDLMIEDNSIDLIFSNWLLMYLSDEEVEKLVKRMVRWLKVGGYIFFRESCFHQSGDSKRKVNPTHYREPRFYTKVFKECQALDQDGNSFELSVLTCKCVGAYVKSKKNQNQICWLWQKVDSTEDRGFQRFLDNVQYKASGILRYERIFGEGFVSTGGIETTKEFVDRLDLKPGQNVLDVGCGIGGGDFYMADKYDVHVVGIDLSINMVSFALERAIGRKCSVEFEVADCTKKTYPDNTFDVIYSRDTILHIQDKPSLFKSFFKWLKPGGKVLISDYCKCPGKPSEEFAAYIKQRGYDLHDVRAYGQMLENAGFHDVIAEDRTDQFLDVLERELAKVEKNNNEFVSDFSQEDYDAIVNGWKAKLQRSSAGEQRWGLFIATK
The test is described as follows: LC-MS/MS of phosphocholine formed. The format is biochemical. Particulars: 200 uM P-EA, 200 uM S-adenosyl-L-methionine, HEPES-KOH pH 9.9, 2 mM EDTA, 30 C, 30 min.

Take `NCCOP(=O)(O)O` [P-EA]: the “LC-MS/MS of phosphocholine formed” value on OsPEAMT2 is “both recombinant OsPEAMT1 and OsPEAMT2 have the activity to catalyze substrate P-EA producing P-Cho”; at OsPEAMT1, “both recombinant OsPEAMT1 and OsPEAMT2 have the activity to catalyze substrate P-EA producing P-Cho”.
